Test results as given in paper PMC7914897, “Cytotoxic Potential of a-Azepano- and 3-Amino-3,4-SeCo-Triterpenoids” (International Journal of Molecular Sciences, 2021).

What was measured:
[1] = system: A2780 (ovarian carcinoma); assay: SRB cytotoxicity assay, 72 h; format: cell-based, human; details: Homo sapiens; A2780, 72 h, cut-off 30 µM; read-out: EC50
Procedure: (§1) The cytotoxicity of compounds 1–20 was evaluated by means of a colorimetric sulforhodamine B (SRB) assay. For all compounds, the EC50 values were determined for the human tumor cell lines A375 (malignant melanoma), HT29 (colorectal carcinoma), MCF-7 (breast carcinoma), A2780 (ovarian carcinoma), FaDu (hypopharyngeal carcinoma), and NIH 3T3 (non-malignant mouse fibroblasts).
(§2) In short, exponentially growing cells were seeded into 96-well plates on day 0 at the appropriate cell densities to prevent confluence of the cells during the period of experiment. After 24 h, the cells were treated with serial dilutions of the compounds (0–30 µM) for 72 h. The final concentration of DMSO never exceeded 0.5%, which was non-toxic to the cells. After a 72 h treatment, the supernatant medium from the 96-well plates was discarded, and the cells were fixed with 10% TCA. For a thorough fixation, the plates were allowed to rest at 4 °C. After fixation, the cells were washed in a strip washer. The washing was done four times with water using alternate dispensing and aspiration procedures. The plates were then dyed with 100 µL of 0.4% SRB for about 20 min. After dying, the plates were washed with 1% acetic acid to remove the excess of the dye and allowed to air-dry overnight. Tris base solution (200 µL, 10 mM) was added to each well and absorbance was measured at λ = 570 nm (using a 96 well plate reader, Tecan Spectra, Crailsheim, Germany). The percentages of surviving cells relative to untreated controls were determined.

[2] = system: A375 (malignant melanoma); assay: SRB cytotoxicity assay, 72 h; format: cell-based, human; details: Homo sapiens, A-375, 72 h, A375, 72 h, cut-off 30 µM; read-out: EC50
Procedure: as §1, §2

[3] = system: FaDu (hypopharyngeal carcinoma); assay: SRB cytotoxicity assay, 72 h; format: cell-based, human; details: Homo sapiens, cut-off 30 µM, read-out: EC50
Procedure: as §1, §2

[4] = system: HT29 (colorectal carcinoma); assay: SRB cytotoxicity assay, 72 h; format: cell-based, human; details: Homo sapiens, HT-29; HT29, 72 h, cut-off 30 µM; read-out: EC50
Procedure: as §1, §2

MCF-7 (breast carcinoma) = assay: SRB cytotoxicity assay, 72 h; format: cell-based, human; details: Homo sapiens, MCF7; MCF-7, 72 h, cut-off 30 µM; read-out: EC50
Procedure: as §1, §2

[5] = system: NIH 3T3 (non-malignant mouse fibroblasts); assay: SRB cytotoxicity assay, 72 h; format: cell-based; details: Mus musculus, NIH3T3; NIH 3T3, 72 h, cut-off 30 µM; read-out: EC50
Procedure: as §1, §2

Leukemia subpanel = assay: cells; details: Homo sapiens
[6] = system: MDA-MB-468 (Breast cancer); assay: cells; details: Homo sapiens
Colon Cancer subpanel = assay: NCI-60 screen, subpanel; details: Homo sapiens
MOLT-4 (Leukemia) = assay: NCI-60 screen (SRB, 48 h); details: Homo sapiens
[7] = system: A549/ATCC (NSC lung cancer); assay: NCI-60 screen (SRB, 48 h); details: Homo sapiens
HOP-92 (NSC lung cancer) = assay: NCI-60 screen (SRB, 48 h); details: Homo sapiens
[8] = system: NCI-H23 (NSC lung cancer); assay: NCI-60 screen (SRB, 48 h); details: Homo sapiens
HCT-116 (Colon cancer) = assay: NCI-60 screen (SRB, 48 h); details: Homo sapiens
HCT-15 (Colon cancer) = assay: NCI-60 screen (SRB, 48 h); details: Homo sapiens
SF-295 (CNS cancer) = assay: NCI-60 screen (SRB, 48 h); details: Homo sapiens
SNB-19 (CNS cancer) = assay: NCI-60 screen (SRB, 48 h); details: Homo sapiens
U251 (CNS cancer) = assay: NCI-60 screen (SRB, 48 h)
IGROV1 (Ovarian cancer) = assay: NCI-60 screen (SRB, 48 h); details: Homo sapiens
OVCAR-5 (Ovarian cancer) = assay: NCI-60 screen (SRB, 48 h); details: Homo sapiens
CAKI-1 (Renal cancer) = assay: NCI-60 screen (SRB, 48 h); details: Homo sapiens
SN12C (Renal cancer) = assay: NCI-60 screen (SRB, 48 h); details: Homo sapiens
TK-10 (Renal cancer) = assay: NCI-60 screen (SRB, 48 h); details: Homo sapiens
[9] = system: MDA-MB-31/ATCC (Breast cancer); assay: NCI-60 screen (SRB, 48 h); details: Homo sapiens

CC(C)=C1CCC=C2CC[C@]3(C)[C@H](CC[C@@H]4[C@@]5(C)CCCNC(C)(C)[C@@H]5CC[C@]43C)[C@H]21 [Compound 9]
EC50 [1]: 2190 ± 100 nM
EC50 [2]: 1710 ± 100 nM
EC50 [3]: 1580 ± 200 nM
EC50 [4]: 1180 ± 100 nM
EC50 (MCF-7 (breast carcinoma)): 1520 nM
EC50 [5]: 2650 ± 500 nM
IC (TGI) (Leukemia subpanel; 48 h, read-out: TGI MG_MID): 3.59 µM
GI50 (Leukemia subpanel; read-out: GI50 MG_MID): 1550 nM
CC50 (Leukemia subpanel; read-out: LC50 MG_MID): 7.19 µM
GI50 ([6]; MDA-MB-468): 1680 nM
IC (TGI) ([6]; MDA-MB-468, 48 h, read-out: TGI): 3.3 µM
CC50 ([6]; MDA-MB-468, read-out: LC50): 6.5 µM
IC (TGI) (Colon Cancer subpanel; 48 h, read-out: TGI MG_MID): 3.03 µM
GI50 (Colon Cancer subpanel; read-out: GI50 MG_MID): 1550 nM
GI50 (MOLT-4 (Leukemia); MOLT-4): 1590 nM
IC (TGI) (MOLT-4 (Leukemia); MOLT-4, 48 h, read-out: TGI): 3.7 µM
GI50 ([7]; A549): 1790 nM
IC (TGI) ([7]; A549, 48 h, read-out: TGI): 3.52 µM
GI50 (HOP-92 (NSC lung cancer); HOP-92): 1390 nM
IC (TGI) (HOP-92 (NSC lung cancer); HOP-92, 48 h, read-out: TGI): 2.77 µM
CC50 (HOP-92 (NSC lung cancer); HOP-92, read-out: LC50): 5.52 µM
GI50 ([8]; NCI-H23): 1780 nM
IC (TGI) ([8]; NCI-H23, 48 h, read-out: TGI): 3.37 µM
CC50 ([8]; NCI-H23, read-out: LC50): 6.39 µM
GI50 (HCT-116 (Colon cancer); HCT-116): 1730 nM
IC (TGI) (HCT-116 (Colon cancer); HCT-116, 48 h, read-out: TGI): 3.31 µM
GI50 (HCT-15 (Colon cancer); HCT-15): 1400 nM
IC (TGI) (HCT-15 (Colon cancer); HCT-15, 48 h, read-out: TGI): 2.81 µM
GI50 (SF-295 (CNS cancer); SF-295): 1870 nM
IC (TGI) (SF-295 (CNS cancer); SF-295, 48 h, read-out: TGI): 3.42 µM
CC50 (SF-295 (CNS cancer); SF-295, read-out: LC50): 6.24 µM
GI50 (SNB-19 (CNS cancer); SNB-19): 1810 nM
IC (TGI) (SNB-19 (CNS cancer); SNB-19, 48 h, read-out: TGI): 3.36 µM
GI50 (U251 (CNS cancer); Homo sapiens, U-251): 1690 nM
IC (TGI) (U251 (CNS cancer); Homo sapiens, U-251, 48 h, read-out: TGI): 3.17 µM
Growth % of the Most Sensitive Cell Lines (U251 (CNS cancer); U251, 1 dose 10 µM): −90.81%
GI50 (IGROV1 (Ovarian cancer); IGROV-1): 1730 nM
IC (TGI) (IGROV1 (Ovarian cancer); IGROV-1, 48 h, read-out: TGI): 3.27 µM
GI50 (OVCAR-5 (Ovarian cancer); OVCAR-5): 1670 nM
IC (TGI) (OVCAR-5 (Ovarian cancer); OVCAR-5, 48 h, read-out: TGI): 3.07 µM
CC50 (OVCAR-5 (Ovarian cancer); OVCAR-5, read-out: LC50): 5.65 µM
GI50 (CAKI-1 (Renal cancer); CAKI-1): 1690 nM
IC (TGI) (CAKI-1 (Renal cancer); CAKI-1, 48 h, read-out: TGI): 3.05 µM
CC50 (CAKI-1 (Renal cancer); CAKI-1, read-out: LC50): 5.53 µM
GI50 (SN12C (Renal cancer)): 1830 nM
IC (TGI) (SN12C (Renal cancer); 48 h, read-out: TGI): 3.44 µM
CC50 (SN12C (Renal cancer); read-out: LC50): 6.45 µM
GI50 (TK-10 (Renal cancer); TK-10): 1810 nM
IC (TGI) (TK-10 (Renal cancer); TK-10, 48 h, read-out: TGI): 3.37 µM
CC50 (TK-10 (Renal cancer); TK-10, read-out: LC50): 6.3 µM
GI50 [9]: 1800 nM
IC (TGI) ([9]; 48 h, read-out: TGI): 3.47 µM
CC50 ([9]; read-out: LC50): 6.69 µM
